The values that follow come from paper PMC10609163, “Exploring the HIV-1 Rev Recognition Element (RRE)–Rev Inhibitory Capacity and Antiretroviral Action of Benfluron Analogs” (Molecules, 2023).

For one data set, the target named is RRE subdomain IIB. The experiment in a line: Fluorescence binding to fluorescein-labeled (U23) RRE subdomain IIB RNA hairpin. Also noted: species or system HIV-1. Particulars: RRE IIB hairpin labeled with fluorescein at U23; 100 nM RNA, pH 6.6; 95% CI and R2 in parentheses. The method, then:
These experiments measured compound association to an RRE subdomain IIB RNA oligonucleotide labeled with fluorescein at extrahelical loop nucleotide U23 (Figure 1) and were carried out in a Spectramax iD5 microplate reader (Molecular Devices) using 100 nM RNA dissolved in 10 mM sodium phosphate, pH 6.6, and 0.1 mM EDTA, as described before. The equilibrium dissociation constants, Kd, were determined by fitting the fluorescence intensity curves to a two-state binding model with GraphPad Prism software. […] All fluorescence experiments were carried out at least three times for each compound.

For data set [1], the system named is full-length RRE–Rev complex. The experiment in a line: EMSA of full-length RRE–Rev complex formation inhibition. The format is biochemical, HIV-1. The note with it: low-order RRE–Rev complex EMSA bands; 70 nM RRE, 0.75 µM Rev; 95% CI and R2 in parentheses. How it is done: These assays were used to monitor full-length RRE–Rev inhibition and involved the viral protein Rev and a 234 nt RRE sequence (Figure 1), obtained as reported previously. RRE was prepared in native conditions using a procedure based on electrophoresis. The reactions used 70 nM RRE and 0.75 μM Rev dissolved in an aqueous solution containing 10 mM HEPES, pH 7.5, 300 mM KCl, 1 mM MgCl2 and 0.5 mM EDTA, and the samples were loaded onto 8% polyacrylamide gels with TB running buffer. Gels were run at 4 °C for 3 h at 150 V, and the bands were stained with SYBR Gold and quantified with ImageJ software. In all cases, we monitored the disappearance of the bands corresponding to low-order RRE–Rev complexes (Figure 4A) using a sigmoidal inhibitory model and GraphPad Prism. At least three independent experiments were conducted for each compound.
(In general: Mobility shift assays separate free from complexed probe on a gel.)

In data set [2] the test system is HIV-1NL4-3-Ren. The experiment in a line: Anti-HIV activity in MT-2 cells infected with HIV-1NL4-3-Ren (Renilla luciferase). It counts as cell-based. The note with it: for EC50: Human immunodeficiency virus 1, MT2, 48 h. The method, then:
(§1) The methodology used to perform these experiments in MT-2 cell culture was reported previously. Infectious HIV-1NL4-3-Ren supernatants were obtained from transfection in 293T cells with plasmid pNL4-3-Ren, where a Renilla luciferase reporter gene replaces the nef gene of the wild-type pNL4-3 HIV-1 clone, which includes LTR promoters. MT-2 cells were infected with these supernatants (100,000 RLUs/well) in the presence of the compounds, and anti-HIV activity was quantified 48 h post-infection by determining Renilla luciferase activity in cell lysates compared to a non-treated control (100%), following the manufacturer’s instructions (Renilla Assay System, Promega). Briefly, 100 µL of Renilla Assay System buffer was added to obtain cell lysates, and 35 µL of these lysates was then transferred to a white 96-well microplate. RLUs were recorded after injecting 35 µL of Renilla substrate (10 s reading) using a luminometer (Berthold Detection Systems). Cellular viability was evaluated in mock-infected cells similarly treated with the same concentrations of compounds using the CellTiter-Glo assay (Promega). To assess the antiretroviral activity of benfluron in human primary cells, PBMCs were isolated from healthy donors via Ficoll density gradient centrifugation and subsequently cultured in a PHA (1 µg/mL) and IL-2 (100 U/mL)-enriched medium for 48 h at 37 °C. Activated PBMCs were infected with HIV-1NL4-3 [20] at a multiplicity of infection of 0.001 and cultured in the presence of serial dilutions (5 nM–100 µM) of benfluron. Three days post-infection, the supernatant was collected, and the HIV-inhibitory effect of the drug was measured using the Alliance HIV-1 p24 Antigen Elisa Kit (Perkin Elmer). The toxicity of the compound in PBMCs was evaluated as explained above for MT-2 cells. In both experiments, the potential background toxicity and antiviral effect of the DMSO vehicle used to solubilize the molecule were determined in parallel. In all cases, EC50 and CC50 values were calculated with GraphPad Prism using log(inhibitor) vs. response non-linear curve fitting. All cellular assays were performed in triplicate.

A short description of another data set: in vitro. It counts as cell-based. The note with it: human. How it is done:
as §1

The test system of the next data set is PBMCs. Put plainly: in vitro. It counts as cell-based. Particulars: human. How it is done: as §1
The next data set concerns HIV-1NL4-3. Put plainly: Antiretroviral activity in activated PBMCs infected with HIV-1NL4-3 (p24 ELISA). The format is cell-based. The method, then:
as §1, with “Briefly, 100 µL of Renilla Assay System buffer was added to obtain cell lysates, and 35 µL of these lysates was then transferred to a white 96-well microplate.” left out, “To assess the antiretroviral activity of benfluron in human primary cells, PBMCs were isolated from healthy donors via Ficoll density gradient centrifugation and subsequently cultured in a PHA (1 µg/mL) and IL-2 (100 U/mL)-enriched medium for 48 h at 37 °C. Activated PBMCs were infected with HIV-1NL4-3 [20] at a multiplicity of infection of 0.001 and cultured in the presence of serial dilutions (5 nM–100 µM) of benfluron.” left out, “In all cases, EC50 and CC50 values were calculated with GraphPad Prism using log(inhibitor) vs. response non-linear curve fitting. All cellular assays were performed in triplicate.” left out
A general note: In an ELISA, binding on a coated surface is turned into a signal by an enzyme label.

Data set [3] has as its system HIV-1NL4-3-Ren. Also on record: method as in PMID 30071201. Particulars: MT-2 cells, HIV-1 infection; cited from earlier work.
A further data set concerns MT-2 cells. Also on record: method as in PMID 30071201. Particulars: cited from earlier work.

Where “and” joins values, the source holds several entries; their conditions need not be identical. Equal entries are not always repeated. Where two headings read alike, the source gives them in different places. Where only a bound is given, the exact number is not on record here.

In the case of `CN(C)CCOc1ccc2c(c1)C(=O)c1ccccc1-2` [Compound 1], at RRE subdomain IIB, the Kd was 45.6 µM. For the same molecule, the IC50 in data set [1] was above 50 µM. This molecule also came in with an EC50 with HIV-1NL4-3-Ren [2] above 100 µM. The same molecule displayed a CC50 at 48 h in “in vitro” (CC50) above 100 µM.
Turning to `CN(C)CCOc1cccc(C(=O)c2ccccc2)c1` [Compound 2], the Kd on RRE subdomain IIB is above 100 µM. In addition, the IC50 in data set [1] is above 50 µM. For the same molecule, in the data set with HIV-1NL4-3-Ren [2], the EC50 was around 100 µM. This molecule returned a cytotoxic concentration (CC50) at 48 h in the data set “in vitro” (CC50) of around 100 µM.
Consider `CN(C)CCOc1ccc2c(c1)Cc1ccccc1-2` [Compound 3], for which, on RRE subdomain IIB, the Kd was 106 µM. Also, in data set [1], the IC50 was above 50 µM. Besides, the EC50 in the data set on HIV-1NL4-3-Ren [2] was around 100 µM. Besides, the CC50 at 48 h in the data set “in vitro” (CC50) is around 100 µM.
Turning to `CN(C)CCOc1ccc(-c2ccccc2)c2ccccc12` [Compound 4], the Kd on RRE subdomain IIB was found to be 77.5 µM. The IC50 in data set [1] is above 50 µM. The same molecule showed an EC50 in the data set on HIV-1NL4-3-Ren [2] of 17 µM. In addition, in the data set “in vitro” (CC50), the midpoint of cytotoxicity, the CC50 at 48 h, lay at 28.7 µM.
In the case of `CN(C)CCOc1cc(C(=O)c2ccccc2)cc2ccccc12` [Compound 5], the Kd at RRE subdomain IIB came out at 95.1 µM. In data set [1], the IC50 is ~29 µM and 29 µM. This molecule also gave a concentration giving a half-maximal response (EC50) in the data set with HIV-1NL4-3-Ren [2] of 19.4 µM. In the data set with HIV-1NL4-3-Ren [2] (MT-2 cells), the “selectivity index (SI; CC50/EC50)” value is listed as 2.6. In addition, the CC50 at 48 h in “in vitro” (CC50) was 49.7 µM.
`CN1CCN(CCOc2cc(C(=O)c3ccccc3)cc3ccccc23)CC1` [Compound 6]: the Kd on RRE subdomain IIB amounted to 34 µM. For the same molecule, the IC50 in data set [1] was ~45 µM and 45 µM. Moreover, the EC50 with HIV-1NL4-3-Ren [2] came out at 24.2 µM. For the same molecule, the CC50 at 48 h in the data set “in vitro” (CC50) fell in the range of 20 to 100 µM; in “in vitro” (MT-2 cells, mock-infected, 95% CI and R2 in parentheses, read-out: CC50), 20 to 49.7 µM.
Take `CN(C)CCOc1cc2c(c3ccccc13)-c1ccccc1C2=O` [benfluron]: the Kd at RRE subdomain IIB was determined as 4.83 µM. Also, the IC50 in data set [1] came out at 5 µM. For the same molecule, the values for the CC50 in the data set “in vitro” (cytotoxic CC50), in the data set with PBMCs and in the data set on MT-2 cells were 7.1 µM, 7.09 µM and 28.1 µM, respectively. Also, in the data set on HIV-1NL4-3, the “selectivity index (SI; CC50/EC50)” value is given as 1.3. Besides, the EC50 was 5.5 µM with HIV-1NL4-3 (Human immunodeficiency virus 1, PBMC, 72 h, HIV-1NL4-3, three days post-infection, p24, read-out: antiviral EC50) and 0.83 µM in the data set with HIV-1NL4-3-Ren [3].

As usually defined, the Kd is the equilibrium constant for the complex coming apart. By IC50 is commonly meant the concentration that gives 50% inhibition. What is called EC50 is the concentration that produces a half-maximal response. Broadly, the CC50 is the concentration giving 50% cytotoxicity.
